In ChEMBL document CHEMBL1156320, “Discovery of novel (S)-alpha-phenyl-gamma-amino butanamide containing CCR5 antagonists via functionality inversion approach” (Bioorg Med Chem Lett, 2010):
Calls of active or inactive are those of the source. The rule behind the calls is not given here.

Experiments:
Type in all cases: functional, cell-based
[1] = molecular target: T1, C-C chemokine receptor type 5 (Homo sapiens, UniProt P51681); assay: Antagonist activity at CCR5 receptor expressed in CHO cells assessed as inhibition of RANTES-induced […]GTPgammaS binding at 300 nM
Target sequence in this assay (P51681 whole entry, looked up): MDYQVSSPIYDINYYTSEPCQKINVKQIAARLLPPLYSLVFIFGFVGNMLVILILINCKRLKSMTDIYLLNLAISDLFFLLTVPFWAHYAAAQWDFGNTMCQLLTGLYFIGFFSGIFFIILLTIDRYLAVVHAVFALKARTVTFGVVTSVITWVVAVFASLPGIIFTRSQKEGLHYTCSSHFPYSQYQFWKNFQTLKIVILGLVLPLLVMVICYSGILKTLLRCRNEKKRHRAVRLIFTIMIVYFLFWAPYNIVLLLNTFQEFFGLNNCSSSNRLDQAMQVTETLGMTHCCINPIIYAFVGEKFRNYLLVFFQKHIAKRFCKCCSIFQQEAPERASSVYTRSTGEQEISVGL

[2] = molecular target: T1, C-C chemokine receptor type 5; assay: Antagonist activity at CCR5 receptor expressed in CHO cells assessed as inhibition of RANTES-induced […]GTPgammaS binding
[3] = molecular target: T1, C-C chemokine receptor type 5; assay: Antagonist activity at CCR5 receptor expressed in CHO cells assessed as inhibition of RANTES-induced […]GTPgammaS binding at 10 uM
Target sequence in this assay (P51681 whole entry, looked up): as above

## Cc1nc2cccnc2n1[C@@H]1C[C@H]2CC[C@@H](C1)N2CC[C@H](COCc1ccc(F)cc1)c1ccccc1
[1]
  inhibition: 42%

## COC(=O)[C@@H](CCN1[C@@H]2CC[C@H]1C[C@@H](n1c(C)nc3cccnc31)C2)c1ccccc1
[1]
  inhibition: 22%
[2]
  IC50: 112 nM

## Cc1nc2cccnc2n1[C@@H]1C[C@H]2CC[C@@H](C1)N2CC[C@H](CO)c1ccccc1
[3]
  inhibition: inactive

## Cc1nc2cccnc2n1[C@H]1C[C@H]2CC[C@@H](C1)N2CC[C@H](C(=O)NCc1ccc(F)cc1)c1ccccc1
[1]
  inhibition: 30%
[2]
  IC50: 14.4 nM

## O=C(NCc1ccc(F)cc1)[C@@H](CCN1[C@@H]2CC[C@H]1C[C@H](n1nnc3cccnc31)C2)c1ccccc1
[1]
  inhibition: 1%

## Cc1nc2cccnc2n1[C@@H]1C[C@H]2CC[C@@H](C1)N2CC[C@H](C(=O)OCc1ccc(F)cc1)c1ccccc1
[1]
  inhibition: 19%

## COC(=O)[C@@H](CCN1[C@@H]2CC[C@H]1C[C@H](n1nnc3cccnc31)C2)c1ccccc1
[2]
  C50: > 10 µM

## Cc1nc2cccnc2n1[C@H]1C[C@H]2CC[C@@H](C1)N2CC[C@H](C(=O)N1C(=O)OC[C@H]1Cc1ccccc1)c1ccccc1 (stereo in doubt; 1a)
[1]
  inhibition: 30%

## Cc1nc2cccnc2n1[C@H]1C[C@H]2CC[C@@H](C1)N2CC[C@H](C(=O)N1C(=O)OC[C@H]1Cc1ccccc1)c1ccccc1 (stereo in doubt; 1b)
[1]
  inhibition: 10%
